PubChem BioAssay (NCI)
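Briefly, cells in 96-well plates were exposed to five compound concentrations for 48 h, and endpoints were estimated by linear interpolation. Abbreviation: GI50, concentration required for 50% inhibition of growth. TGI denotes the concentration required for complete inhibition of growth.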

How the values were obtained:
Experiment in all cases: DTP human tumour cell line panel, 48 h; in the data active = GI50 below about 0.43 µM; inactive = the rest
BT-549 breast = test system: BT-549 breast
EKVX NSCLC = test system: EKVX NSCLC
SK-MEL-28 melanoma = test system: SK-MEL-28 melanoma
MOLT-4 leukemia = test system: MOLT-4 leukemia
IGROV1 ovarian = test system: IGROV1 ovarian
ACHN renal = test system: ACHN renal
SNB-19 CNS = test system: SNB-19 CNS
CAKI-1 renal = test system: CAKI-1 renal
MALME-3M melanoma = test system: MALME-3M melanoma
HCT-15 colon = test system: HCT-15 colon
SK-MEL-2 melanoma = test system: SK-MEL-2 melanoma
OVCAR-5 ovarian = test system: OVCAR-5 ovarian
LOX IMVI melanoma = test system: LOX IMVI melanoma
OVCAR-4 ovarian = test system: OVCAR-4 ovarian
OVCAR-3 ovarian = test system: OVCAR-3 ovarian
SF-295 CNS = test system: SF-295 CNS
UACC-62 melanoma = test system: UACC-62 melanoma
M14 melanoma = test system: M14 melanoma
HT29 colon = test system: HT29 colon
SF-268 CNS = test system: SF-268 CNS
K-562 leukemia = test system: K-562 leukemia
NCI/ADR-RES ovarian = test system: NCI/ADR-RES ovarian
UACC-257 melanoma = test system: UACC-257 melanoma
SR leukemia = test system: SR leukemia
SK-MEL-5 melanoma = test system: SK-MEL-5 melanoma
RXF 393 renal = test system: RXF 393 renal
COLO 205 colon = test system: COLO 205 colon
SN12C renal = test system: SN12C renal
HCC-2998 colon = test system: HCC-2998 colon
TK-10 renal = test system: TK-10 renal
NCI-H23 lung = test system: NCI-H23 lung
OVCAR-8 ovarian = test system: OVCAR-8 ovarian
KM12 colon = test system: KM12 colon
A549 NSCLC = test system: A549 NSCLC
A498 renal = test system: A498 renal
HOP-62 NSCLC = test system: HOP-62 NSCLC
SK-OV-3 ovarian = test system: SK-OV-3 ovarian
DU-145 prostate = test system: DU-145 prostate
T-47D breast = test system: T-47D breast
SW-620 colon = test system: SW-620 colon
NCI-H522 lung = test system: NCI-H522 lung
HCT-116 colon = test system: HCT-116 colon
NCI-H460 lung = test system: NCI-H460 lung
NCI-H226 lung = test system: NCI-H226 lung
MDA-MB-435 = test system: MDA-MB-435
HL-60(TB) leukemia = test system: HL-60(TB) leukemia
MCF7 breast = test system: MCF7 breast
786-0 renal = test system: 786-0 renal
MDA-MB-231 breast = test system: MDA-MB-231 breast
U251 CNS = test system: U251 CNS
UO-31 renal = test system: UO-31 renal
HOP-92 NSCLC = test system: HOP-92 NSCLC
RPMI-8226 leukemia = test system: RPMI-8226 leukemia
SF-539 CNS = test system: SF-539 CNS
SNB-75 CNS = test system: SNB-75 CNS
CCRF-CEM leukemia = test system: CCRF-CEM leukemia
PC-3 prostate = test system: PC-3 prostate

COc1ccc(C2=C(c3cn(C)c4ccccc34)C(=O)OC2)cc1OC
27900 nM: TGI (COLO 205 colon)
5450 nM: TGI (OVCAR-3 ovarian)
> 100000 nM: TGI (BT-549 breast) | TGI (EKVX NSCLC) | TGI (SK-MEL-28 melanoma) | TGI (MOLT-4 leukemia) | TGI (IGROV1 ovarian) | TGI (ACHN renal) | TGI (SNB-19 CNS) | TGI (CAKI-1 renal) | TGI (MALME-3M melanoma) | TGI (HCT-15 colon) | TGI (SK-MEL-2 melanoma) | TGI (OVCAR-5 ovarian) | TGI (LOX IMVI melanoma) | TGI (OVCAR-4 ovarian) | TGI (SF-295 CNS) | TGI (UACC-62 melanoma) | TGI (M14 melanoma) | TGI (HT29 colon) | TGI (SF-268 CNS) | TGI (K-562 leukemia) | TGI (NCI/ADR-RES ovarian) | TGI (UACC-257 melanoma) | TGI (SR leukemia) | TGI (SK-MEL-5 melanoma) | TGI (SN12C renal) | TGI (HCC-2998 colon) | TGI (TK-10 renal) | TGI (NCI-H23 lung) | TGI (OVCAR-8 ovarian) | TGI (KM12 colon) | TGI (A549 NSCLC) | TGI (HOP-62 NSCLC) | TGI (SK-OV-3 ovarian) | TGI (DU-145 prostate) | TGI (T-47D breast) | TGI (SW-620 colon) | TGI (NCI-H522 lung) | TGI (HCT-116 colon) | TGI (NCI-H460 lung) | TGI (NCI-H226 lung) | TGI (MCF7 breast) | TGI (786-0 renal) | TGI (MDA-MB-231 breast) | TGI (U251 CNS) | TGI (UO-31 renal)
3500 nM: TGI (A498 renal)
active: GI50 (SR leukemia) 411 nM | GI50 (A498 renal) 374 nM | GI50 (MDA-MB-435) 265 nM
6110 nM: TGI (RXF 393 renal)
inactive: GI50 (BT-549 breast) 2790 nM | GI50 (EKVX NSCLC) 4640 nM | GI50 (SK-MEL-28 melanoma) 9870 nM | GI50 (MOLT-4 leukemia) 2800 nM | GI50 (IGROV1 ovarian) 1720 nM | GI50 (ACHN renal) 7950 nM | GI50 (SNB-19 CNS) 4180 nM | GI50 (CAKI-1 renal) 747 nM | GI50 (MALME-3M melanoma) 9320 nM | GI50 (HCT-15 colon) 621 nM | GI50 (SK-MEL-2 melanoma) 4340 nM | GI50 (OVCAR-5 ovarian) 5960 nM | GI50 (LOX IMVI melanoma) 4540 nM | GI50 (OVCAR-4 ovarian) 6770 nM | GI50 (OVCAR-3 ovarian) 1250 nM | GI50 (SF-295 CNS) 2650 nM | GI50 (UACC-62 melanoma) 1280 nM | GI50 (M14 melanoma) 938 nM | GI50 (HT29 colon) 688 nM | GI50 (SF-268 CNS) 16800 nM | GI50 (K-562 leukemia) 441 nM | GI50 (NCI/ADR-RES ovarian) 870 nM | GI50 (UACC-257 melanoma) > 100000 nM | GI50 (SK-MEL-5 melanoma) 3740 nM | GI50 (RXF 393 renal) 1920 nM | GI50 (COLO 205 colon) 1500 nM | GI50 (SN12C renal) 6810 nM | GI50 (HCC-2998 colon) 2860 nM | GI50 (TK-10 renal) > 100000 nM | GI50 (NCI-H23 lung) 4040 nM | GI50 (OVCAR-8 ovarian) 4690 nM | GI50 (KM12 colon) 1450 nM | GI50 (A549 NSCLC) 2670 nM | GI50 (HOP-62 NSCLC) 3000 nM | GI50 (SK-OV-3 ovarian) 5600 nM | GI50 (DU-145 prostate) 3130 nM | GI50 (T-47D breast) 4070 nM | GI50 (SW-620 colon) 587 nM | GI50 (NCI-H522 lung) 1190 nM | GI50 (HCT-116 colon) 1160 nM | GI50 (NCI-H460 lung) 2210 nM | GI50 (NCI-H226 lung) 3260 nM | GI50 (HL-60(TB) leukemia) 1420 nM | GI50 (MCF7 breast) 713 nM | GI50 (786-0 renal) 6670 nM | GI50 (MDA-MB-231 breast) 2420 nM | GI50 (U251 CNS) 2640 nM | GI50 (UO-31 renal) 1930 nM
801 nM: TGI (MDA-MB-435)
6480 nM: TGI (HL-60(TB) leukemia)

CCn1nc(-c2ccc(C(=O)OC)cc2)nc2c(=O)n(C)c(=O)nc1-2
3270 nM: TGI (NCI-H460 lung)
2040 nM: TGI (SK-MEL-2 melanoma)
1990 nM: TGI (NCI-H522 lung)
2750 nM: TGI (SK-OV-3 ovarian)
594 nM: TGI (UACC-62 melanoma)
1010 nM: TGI (HCT-116 colon)
1980 nM: TGI (SF-295 CNS)
2420 nM: TGI (NCI/ADR-RES ovarian) | TGI (SNB-75 CNS)
566 nM: TGI (OVCAR-3 ovarian)
8220 nM: TGI (PC-3 prostate)
1450 nM: TGI (OVCAR-8 ovarian)
2240 nM: TGI (HCC-2998 colon)
active: GI50 (MOLT-4 leukemia) 393 nM | GI50 (MALME-3M melanoma) 216 nM | GI50 (HCT-15 colon) 371 nM | GI50 (RPMI-8226 leukemia) 340 nM | GI50 (LOX IMVI melanoma) 375 nM | GI50 (OVCAR-3 ovarian) 181 nM | GI50 (UACC-62 melanoma) 216 nM | GI50 (HT29 colon) 266 nM | GI50 (K-562 leukemia) 251 nM | GI50 (SF-539 CNS) 359 nM | GI50 (UACC-257 melanoma) 306 nM | GI50 (SK-MEL-5 melanoma) 128 nM | GI50 (COLO 205 colon) 211 nM | GI50 (SN12C renal) 193 nM | GI50 (OVCAR-8 ovarian) 368 nM | GI50 (KM12 colon) 421 nM | GI50 (A549 NSCLC) 413 nM | GI50 (A498 renal) 166 nM | GI50 (T-47D breast) 332 nM | GI50 (PC-3 prostate) 347 nM | GI50 (HCT-116 colon) 283 nM | GI50 (MDA-MB-435) 162 nM | GI50 (HL-60(TB) leukemia) 319 nM | GI50 (MCF7 breast) 148 nM | GI50 (U251 CNS) 360 nM
2180 nM: TGI (SW-620 colon)
2580 nM: TGI (HOP-62 NSCLC)
1880 nM: TGI (OVCAR-4 ovarian)
1720 nM: TGI (A549 NSCLC)
2410 nM: TGI (MOLT-4 leukemia)
inactive: GI50 (BT-549 breast) 1550 nM | GI50 (SK-MEL-28 melanoma) 1380 nM | GI50 (IGROV1 ovarian) 1080 nM | GI50 (ACHN renal) 1080 nM | GI50 (SNB-19 CNS) 1110 nM | GI50 (CAKI-1 renal) 1220 nM | GI50 (HOP-92 NSCLC) 1720 nM | GI50 (SK-MEL-2 melanoma) 524 nM | GI50 (OVCAR-5 ovarian) 460 nM | GI50 (OVCAR-4 ovarian) 479 nM | GI50 (SF-295 CNS) 637 nM | GI50 (SF-268 CNS) 1120 nM | GI50 (NCI/ADR-RES ovarian) 484 nM | GI50 (SR leukemia) 744 nM | GI50 (RXF 393 renal) 1570 nM | GI50 (HCC-2998 colon) 763 nM | GI50 (TK-10 renal) 3110 nM | GI50 (NCI-H23 lung) 1220 nM | GI50 (SNB-75 CNS) 1190 nM | GI50 (HOP-62 NSCLC) 1070 nM | GI50 (SK-OV-3 ovarian) 1450 nM | GI50 (CCRF-CEM leukemia) 566 nM | GI50 (DU-145 prostate) 1110 nM | GI50 (SW-620 colon) 676 nM | GI50 (NCI-H522 lung) 484 nM | GI50 (NCI-H460 lung) 488 nM | GI50 (NCI-H226 lung) 1360 nM | GI50 (786-0 renal) 1320 nM | GI50 (MDA-MB-231 breast) 461 nM | GI50 (UO-31 renal) 1080 nM
836 nM: TGI (MALME-3M melanoma)
3160 nM: TGI (NCI-H23 lung)
260 nM: TGI (SK-MEL-5 melanoma)
411 nM: TGI (SN12C renal)
3390 nM: TGI (HOP-92 NSCLC)
12100 nM: TGI (SR leukemia)
1150 nM: TGI (HL-60(TB) leukemia)
3260 nM: TGI (RXF 393 renal)
2400 nM: TGI (HT29 colon)
1610 nM: TGI (HCT-15 colon)
1080 nM: TGI (UACC-257 melanoma)
11300 nM: TGI (CCRF-CEM leukemia)
2990 nM: TGI (BT-549 breast)
1550 nM: TGI (SF-539 CNS)
2450 nM: TGI (IGROV1 ovarian)
6330 nM: TGI (MDA-MB-231 breast)
2370 nM: TGI (SNB-19 CNS)
2280 nM: TGI (UO-31 renal)
1420 nM: TGI (T-47D breast)
1380 nM: TGI (U251 CNS)
1090 nM: TGI (K-562 leukemia)
1770 nM: TGI (OVCAR-5 ovarian)
1500 nM: TGI (LOX IMVI melanoma)
2260 nM: TGI (ACHN renal)
6740 nM: TGI (TK-10 renal)
2460 nM: TGI (CAKI-1 renal)
3060 nM: TGI (SF-268 CNS)
643 nM: TGI (COLO 205 colon)
988 nM: TGI (A498 renal)
2320 nM: TGI (DU-145 prostate)
2880 nM: TGI (SK-MEL-28 melanoma)
2690 nM: TGI (NCI-H226 lung)
2230 nM: TGI (KM12 colon)
3310 nM: TGI (786-0 renal)
1760 nM: TGI (RPMI-8226 leukemia)
310 nM: TGI (MDA-MB-435)
372 nM: TGI (MCF7 breast)
